Results as given in patent publication US20260042762A1 (Kymera Therapeutics, Inc., priority 2018, published 2026).
Where two headings read alike, the source gives them in different places.

Target: T1, MerTK (Homo sapiens, UniProt Q12866)
T1 construct: endogenous in cells; host or cells: Jurkat cells
T1 sequence (Q12866 21-999): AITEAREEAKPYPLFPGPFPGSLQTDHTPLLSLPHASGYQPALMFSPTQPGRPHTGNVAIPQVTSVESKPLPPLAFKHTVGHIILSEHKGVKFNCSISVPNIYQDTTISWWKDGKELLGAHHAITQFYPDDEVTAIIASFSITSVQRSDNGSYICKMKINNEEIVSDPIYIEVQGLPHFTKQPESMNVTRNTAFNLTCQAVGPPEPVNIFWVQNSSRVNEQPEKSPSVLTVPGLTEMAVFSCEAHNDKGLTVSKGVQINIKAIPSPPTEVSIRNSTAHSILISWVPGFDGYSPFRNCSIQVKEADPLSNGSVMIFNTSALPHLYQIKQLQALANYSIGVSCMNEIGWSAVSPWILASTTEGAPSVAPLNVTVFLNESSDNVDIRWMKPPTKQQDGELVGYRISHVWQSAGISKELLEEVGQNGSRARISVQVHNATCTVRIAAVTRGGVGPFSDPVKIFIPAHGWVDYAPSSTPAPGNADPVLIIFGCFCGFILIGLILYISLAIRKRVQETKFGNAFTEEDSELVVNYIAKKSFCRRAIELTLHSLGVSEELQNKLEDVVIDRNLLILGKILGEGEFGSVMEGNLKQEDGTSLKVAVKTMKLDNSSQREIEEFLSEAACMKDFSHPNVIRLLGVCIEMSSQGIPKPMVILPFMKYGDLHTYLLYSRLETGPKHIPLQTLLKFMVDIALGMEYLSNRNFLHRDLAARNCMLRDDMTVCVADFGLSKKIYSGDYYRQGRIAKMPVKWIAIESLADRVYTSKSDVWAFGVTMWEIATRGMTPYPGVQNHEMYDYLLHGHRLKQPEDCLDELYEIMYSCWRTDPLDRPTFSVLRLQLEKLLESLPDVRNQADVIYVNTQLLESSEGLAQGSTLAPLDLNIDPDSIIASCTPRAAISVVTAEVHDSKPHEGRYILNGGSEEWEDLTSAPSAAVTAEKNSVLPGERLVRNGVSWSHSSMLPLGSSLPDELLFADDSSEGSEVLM
Assay: MerTk degradation in Jurkat cells (Western blot)
Type: cell-based
Details: 0.001-1 μM, 4 hour-incubation at 37° C.; for Dmax: read-out: Jurkat Max % MerTK Degradation
Outline: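 MerTK degradation was read by near-infrared Western blot, normalized to actin, in BCA-quantified lysates of Jurkat cells exposed to 0.001-1 μM compound for 4 h at 37 °C.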

For `Cn1c(=O)n([C@H]2CCC(=O)NC2=O)c2ccc(CCO[C@H]3C[C@@H](N4CCN(Cc5ccc(-c6cn([C@H]7CC[C@H](O)CC7)c7nc(NCCC(F)(F)F)ncc67)cc5)CC4)C3)cc21` [I-143, 3-[3-methyl-2-oxo-5-[2-(3-[4-[(4-[7-[trans-4-hydroxycyclohexyl]-2-[(3,3,3-trifluoropropyl)amino]pyrrolo[2,3-d]pyrimidin-5-yl]phenyl)methyl]piperazin-1-yl]cyclobutoxy)ethyl]-1,3-benzodiazol-1-yl]piperidine-2,6-dione; formic acid], which Dmax (Jurkat, 4 h) is on record?
Its Dmax is > 50%.

`Cn1c(=O)n([C@H]2CCC(=O)NC2=O)c2ccc(CCOC3CN(C4CCN(Cc5ccc(-c6cn([C@H]7CC[C@H](O)CC7)c7nc(NCCC(F)(F)F)ncc67)cc5)CC4)C3)cc21` [I-144, 3-(3-methyl-2-oxo-5-[2-[(1-[1-[(4-[7-[trans-4-hydroxycyclohexy1]-2-[(3,3,3-trifluoropropyl)amino]pyrrolo[2,3-d]pyrimidin-5-yl]phenyl)methyl]piperidin-4-yl]azetidin-3-yl)oxy]ethyl]-1,3-benzodiazol-1-yl)piperidine-2,6-dione; formic acid] was tested. Which Dmax (Jurkat, 4 h) did it give?
The Dmax was > 50%.

How did the Dmax (Jurkat, 4 h) turn out when `CCC[C@H](C)Nc1ncc2c(-c3ccc(CN4CCN(CCCOC5CN(Cc6ccc7c(c6)n(C)c(=O)n7C6CCC(=O)NC6=O)C5)CC4)cc3)cn([C@H]3CC[C@H](O)CC3)c2n1` (stereo partly drawn) [I-178, 3-(3-methyl-2-oxo-5-[[3-(3-[4-[(4-[2-[(2S)-pentan-2-ylamino]-7-[trans-4-hydroxycyclohexyl]pyrrolo[2,3-d]pyrimidin-5-yl]phenyl)methyl]piperazin-1-yl]propoxy)azetidin-1-yl]methyl]-1,3-benzodiazol-1-yl)piperidine-2,6-dione] was run?
The Dmax was > 50%.

How did the Dmax (Jurkat, 4 h) turn out when `CCCCNc1ncc2c(-c3ccc(S(=O)(=O)N4CCN(C(=O)COCCOCCOCCOCCNc5cccc6c5C(=O)N(C5CCC(=O)NC5=O)C6=O)CC4)cc3)nn([C@H]3CC[C@H](O)CC3)c2n1` (stereo partly drawn) [I-32, 4-((14-(4-((4-(6-(butylamino)-1-(trans-4-hydroxycyclohexyl)-1H-pyrazolo[3,4-d]pyrimidin-3-yl)phenyl)sulfonyl)piperazin-1-yl)-14-oxo-3,6,9,12-tetraoxatetradecyl)amino)-2-(2,6-dioxopiperidin-3-yl)isoindoline-1,3-dione] was run?
The Dmax was > 50%.

How did the Dmax (Jurkat, 4 h) turn out when `Cn1c(=O)n([C@H]2CCC(=O)NC2=O)c2ccc(CCOC3CCN(C4CCN(Cc5ccc(-c6cn([C@H]7CC[C@H](O)CC7)c7nc(NCCC(F)(F)F)ncc67)cc5)CC4)CC3)cc21` [I-155, 3-[3-methyl-2-oxo-5-[2-([1-[(4-[7-[trans-4-hydroxycyclohexy1]-2-[(3,3,3-trifluoropropyl)amino]pyrrolo[2,3-d]pyrimidin-5-yl]phenyl)methyl]-[1,4-bipiperidin]-4-yl]oxy)ethyl]-1,3-benzodiazol-1-yl]piperidine-2,6-dione; formic acid] was run?
The Dmax was > 50%.

Which Dmax (Jurkat, 4 h) does the source give for `CC(c1ccc(-c2cn([C@H]3CC[C@H](O)CC3)c3nc(NCCC(F)(F)F)ncc23)cc1)N1CCN(CCCOCCCc2ccc3c(c2)n(C)c(=O)n3C2CCC(=O)NC2=O)CC1` (stereo partly drawn) [I-80, 3-[3-methyl-2-oxo-5-[3-(3-[4-[1-(4-[7-[trans-4-hydroxycyclohexyl]-2-[(3,3,3-trifluoropropyl)amino]-7H-pyrrolo[2,3-d]pyrimidin-5-yl]phenyl)ethyl]piperazin-1-yl]propoxy)propyl]-2,3-dihydro-1H-1,3-benzodiazol-1-yl]piperidine-2,6-dione] here?
The Dmax was > 50%.

For `CCCCNc1ncc2c(-c3ccc(CN4CCN(CCOCCOCCOCCCc5ccc6c(c5)n(C)c(=O)n6[C@H]5CCC(=O)NC5=O)CC4)cc3)nn([C@H]3CC[C@H](O)CC3)c2n1` [I-49, 3-(5-[3-[2-(2-[2-[4-([4-[6-(butylamino)-1-[trans-4-hydroxycyclohexy1]-1H-pyrazolo[3,4-d]pyrimidin-3-yl]phenyl]methyl)piperazin-1-yl]ethoxy]ethoxy)ethoxy]propyl]-3-methyl-2-oxo-2,3-dihydro-1H-1,3-benzodiazol-1-y1)piperidine-2,6-dione; formic acid], which Dmax (Jurkat, 4 h) is on record?
Its Dmax is > 50%.

`CCCCNc1ncc2c(-c3ccc(CN4CCN(CCCC(=O)NCCCOCCCOCCCc5cccc6c5n(C)c(=O)n6C5CCC(=O)NC5=O)CC4)cc3)cn([C@H]3CC[C@H](O)CC3)c2n1` (stereo partly drawn) [I-8, Trans-4-[4-([4-[2-(butylamino)-7-[4-hydroxycyclohexyl]-7H-pyrrolo[2,3-d]pyrimidin-5-yl]phenyl]methyl)piperazin-1-yl]-N-[3-(3-[3-[1-(2,6-dioxopiperidin-3-yl)-3-methyl-2-oxo-2,3-dihydro-1H-1,3-benzodiazol-4-yl]propoxy]propoxy)propyl]butanamide formic acid] was tested. Which Dmax did it give?
Its Dmax is > 50%.

How did the “Jurkat Max % MerTK Degradation” value turn out when `Cn1c(=O)n(C2CCC(=O)NC2=O)c2ccc(CCCOCCN3CCCC(N4CCN(Cc5ccc(-c6cn([C@H]7CC[C@H](O)CC7)c7nc(NCCC(F)(F)F)ncc67)cc5)CC4)C3)cc21.O=CO` (stereo partly drawn) [I-95, 3-(3-methyl-2-oxo-5-[3-[2-(3-[4-[(4-[7-[trans-4-hydroxycyclohexyl]-2-[(3,3,3-trifluoropropyl)amino]-7H-pyrrolo[2,3-d]pyrimidin-5-yl]phenyl)methyl]piperazin-1-yl]piperidin-1-yl)ethoxy]propyl]-2,3-dihydro-1H-1,3-benzodiazol-1-y1)piperidine-2,6-dione; formic acid] was run?
Its value is “A (maximum MerTK degradation greater than 50%)”.

With `Cn1c(=O)n([C@H]2CCC(=O)NC2=O)c2ccc(C#CCOCCN3CCC(N4CCN(Cc5ccc(-c6cn([C@H]7CC[C@H](O)CC7)c7nc(NCCC(F)(F)F)ncc67)cc5)CC4)CC3)cc21` [I-86, 3-(3-methyl-2-oxo-5-[3-[2-(4-[4-[(4-[7-[trans-4-hydroxycyclohexy1]-2-[(3,3,3-trifluoropropyl)amino]-7H-pyrrolo[2,3-d]pyrimidin-5-yl]phenyl)methyl]piperazin-1-yl]piperidin-1-yl)ethoxy]prop-1-yn-1-yl]-2,3-dihydro-1H-1,3-benzodiazol-1-yl)piperidine-2,6-dione; formic acid] as the molecule, how does the Dmax (Jurkat, 4 h) read?
Its Dmax is > 50%.

`Cn1c(=O)n([C@H]2CCC(=O)NC2=O)c2ccc(CCCCN3CC(N4CCN(Cc5ccc(-c6cn([C@H]7CC[C@H](O)CC7)c7nc(NCCC(F)(F)F)ncc67)cc5)CC4)C3)cc21` [I-119, 3-[3-methyl-2-oxo-5-[4-(3-[4-[(4-[7-[trans-4-hydroxycyclohexyl]-2-[(3,3,3-trifluoropropyl)amino]-7H-pyrrolo[2,3-d]pyrimidin-5-yl]phenyl)methyl]piperazin-1-yl]azetidin-1-yl)butyl]-2,3-dihydro-1H-1,3-benzodiazol-1-yl]piperidine-2,6-dione; bis(formic acid)] was tested. Which Dmax (Jurkat, 4 h) did it give?
The Dmax was > 50%.

With `Cn1c(=O)n([C@H]2CCC(=O)NC2=O)c2ccc(C#CCOCCOCCN3CCN(Cc4ccc(-c5cn([C@H]6CC[C@H](O)CC6)c6nc(NCCC(F)(F)F)ncc56)cc4)CC3)cc21` [I-82, 3-(3-methyl-2-oxo-5-[3-[2-(2-[4-[(4-[7-[trans-4-hydroxycyclohexy1]-2-[(3,3,3-trifluoropropyl)amino]-7H-pyrrolo[2,3-d]pyrimidin-5-yl]phenyl)methyl]piperazin-1-yl]ethoxy)ethoxy]prop-1-yn-1-yl]-2,3-dihydro-1H-1,3-benzodiazol-1-yl)piperidine-2,6-dione] as the molecule, how does the Dmax (Jurkat, 4 h) read?
The Dmax was > 50%.

`CCCCNc1ncc2c(-c3ccc(S(=O)(=O)N4CCN(CCOCCOCCOCCOCCNc5cccc6c5C(=O)N(C5CCC(=O)NC5=O)C6=O)CC4)cc3)nn([C@H]3CC[C@H](O)CC3)c2n1` (stereo partly drawn) [I-34, 4-((14-(4-((4-(6-(butylamino)-1-(trans-4-hydroxycyclohexyl)-1H-pyrazolo[3,4-d]pyrimidin-3-yl)phenyl)sulfonyl)piperazin-1-yl)-3,6,9,12-tetraoxatetradecyl)amino)-2-(2,6-dioxopiperidin-3-yl)isoindoline-1,3-dione] was tested. Which Dmax (Jurkat, 4 h) did it give?
The Dmax was > 50%.

Which Dmax (Jurkat, 4 h) does the source give for `Cc1ncsc1-c1ccc(CNC(=O)[C@@H]2C[C@@H](O)CN2C(=O)[C@@H](NC(=O)C2(F)CC2)C(C)(C)C)c(OCCOCCN2CCN(Cc3ccc(-c4cn([C@H]5CC[C@H](O)CC5)c5nc(NCCC(F)(F)F)ncc45)cc3)CC2)c1` [I-174] here?
Its Dmax is 20 to 50%.

Which Dmax (Jurkat, 4 h) does the source give for `CCC[C@H](C)Nc1ncc2c(-c3ccc(CN4CCN(CCCOC5CCN(Cc6ccc7c(c6)n(C)c(=O)n7C6CCC(=O)NC6=O)CC5)CC4)cc3)cn([C@H]3CC[C@H](O)CC3)c2n1` (stereo partly drawn) [I-189, 3-(3-methyl-2-oxo-5-[[4-(3-[4-[(4-[2-[(2S)-pentan-2-ylamino]-7-[trans-4-hydroxycyclohexyl]pyrrolo[2,3-d]pyrimidin-5-yl]phenyl)methyl]piperazin-1-yl]propoxy)piperidin-1-y1]methyl]-1,3-benzodiazol-1-y1)piperidine-2,6-dione; formic acid] here?
Its Dmax is > 50%.
